Experimental data published in ChEMBL document CHEMBL1155376, “Structure-activity relationships of norepinephrine reuptake inhibitors with benzothiadiazine dioxide or dihydrosulfostyril cores” (Bioorg Med Chem Lett, 2010).

Tested on: Rattus norvegicus
Assay: Duration of thermoregulatory activity in OVX-induced thermoregulatory dysfunction Sprague-Dawley rat model at 3 mg/kg, po by implanted temperature and physical activity transmitter
Format: functional

Structure (SMILES) | Activity [h]
CNCCCC1Cc2cc(F)ccc2N(c2ccccc2F)S1(=O)=O.Cl (single isomer, unassigned; enantiomer II) | 6

Target: T1, Sodium-dependent dopamine transporter (Homo sapiens, UniProt Q01959)
Assay: Displacement of [3H]WIN-35428 from human recombinant DAT expressed in CHO cells at 10 uM
Format: cell-based

T1 sequence (Q01959 whole entry): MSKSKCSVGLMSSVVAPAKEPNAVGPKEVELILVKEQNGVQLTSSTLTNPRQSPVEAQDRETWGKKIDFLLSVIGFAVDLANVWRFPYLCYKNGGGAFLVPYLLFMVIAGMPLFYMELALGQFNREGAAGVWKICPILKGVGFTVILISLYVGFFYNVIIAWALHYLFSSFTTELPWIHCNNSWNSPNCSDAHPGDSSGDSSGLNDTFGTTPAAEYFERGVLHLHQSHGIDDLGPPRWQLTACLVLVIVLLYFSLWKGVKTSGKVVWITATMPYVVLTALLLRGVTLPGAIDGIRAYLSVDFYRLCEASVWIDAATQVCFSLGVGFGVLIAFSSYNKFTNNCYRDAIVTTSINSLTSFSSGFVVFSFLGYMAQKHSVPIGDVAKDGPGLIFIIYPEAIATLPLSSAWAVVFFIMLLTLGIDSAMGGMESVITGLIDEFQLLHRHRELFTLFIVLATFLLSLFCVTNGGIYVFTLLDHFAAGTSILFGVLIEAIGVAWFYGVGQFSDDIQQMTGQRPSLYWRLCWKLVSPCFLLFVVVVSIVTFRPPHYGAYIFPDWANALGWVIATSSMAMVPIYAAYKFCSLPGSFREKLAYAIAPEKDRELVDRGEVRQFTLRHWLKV

Structure (SMILES) | inhibition [%]
CNCCCC1Cc2ccccc2N(c2c(F)cccc2F)S1(=O)=O (single isomer, unassigned; 16f) | 3.8
CNCCCC1Cc2ccccc2N(c2ccccc2F)S1(=O)=O (single isomer, unassigned; enantiomer I) [listing 1 of 2 here] | 21
CNCCCC1Cc2ccccc2N(c2ccccc2F)S1(=O)=O (single isomer, unassigned; enantiomer II) | 23
CNCCCC1Cc2cc(F)ccc2N(c2ccccc2F)S1(=O)=O (single isomer, unassigned; enantiomer II) | 50

Tested on: Rattus norvegicus
Assay: Thermoregulatory activity in OVX-induced thermoregulatory dysfunction Sprague-Dawley rat model assessed as maximum reduction in tail-skin temperature at 3 mg/kg, po by implanted temperature and physical activity transmitter
Format: functional

Structure (SMILES) | Activity [°C]
CNCCCC1Cc2ccccc2N(c2c(F)cccc2F)S1(=O)=O.Cl (single isomer, unassigned; 16f) | 0
CNCCCC1Cc2cc(F)ccc2N(c2ccccc2F)S1(=O)=O.Cl (single isomer, unassigned; enantiomer II) | 2.4

Target: T2, Sodium-dependent serotonin transporter (Homo sapiens, UniProt P31645)
Assay: Inhibition of serotonin uptake at human SERT expressed in human JAR at 6 uM
Target sequence in this assay (P31645 whole entry, looked up): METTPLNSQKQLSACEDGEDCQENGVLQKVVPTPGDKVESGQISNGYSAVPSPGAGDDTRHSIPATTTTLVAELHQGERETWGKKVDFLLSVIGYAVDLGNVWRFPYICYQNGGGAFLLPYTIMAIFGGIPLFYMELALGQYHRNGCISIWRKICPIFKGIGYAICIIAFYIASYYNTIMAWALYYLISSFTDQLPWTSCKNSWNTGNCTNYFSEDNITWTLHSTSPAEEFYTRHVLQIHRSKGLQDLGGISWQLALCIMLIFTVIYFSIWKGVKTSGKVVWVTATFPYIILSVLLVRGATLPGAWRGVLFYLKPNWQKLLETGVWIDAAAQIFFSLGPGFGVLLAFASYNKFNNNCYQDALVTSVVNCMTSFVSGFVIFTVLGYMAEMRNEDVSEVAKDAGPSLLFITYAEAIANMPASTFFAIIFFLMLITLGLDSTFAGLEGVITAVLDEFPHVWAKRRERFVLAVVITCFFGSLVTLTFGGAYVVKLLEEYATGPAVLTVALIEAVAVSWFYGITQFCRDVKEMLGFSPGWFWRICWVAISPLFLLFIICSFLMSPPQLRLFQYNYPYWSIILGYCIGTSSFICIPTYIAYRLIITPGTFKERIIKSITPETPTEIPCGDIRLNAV

Structure (SMILES) | inhibition [%]
CNCCCC1Cc2ccccc2N(c2ccccc2F)S1(=O)=O (single isomer, unassigned; enantiomer I) [listing 1 of 2 here] | 11
CNCCCC1Cc2ccccc2N(c2c(F)cccc2F)S1(=O)=O (single isomer, unassigned; 16e) [listing 1 of 2 here] | 40
CNCCCC1Cc2cc(F)ccc2N(c2ccccc2)S1(=O)=O (single isomer, unassigned; enantiomer I) | 85
CNCCCC1Cc2ccccc2N(c2ccccc2F)S1(=O)=O (single isomer, unassigned; enantiomer II) | 74
CNCCCC1Cc2cc(F)ccc2N(c2c(F)cccc2F)S1(=O)=O (single isomer, unassigned) [listing 1 of 2 here] | 82

Target: T1, Sodium-dependent dopamine transporter
Assay: biochemical

Structure (SMILES) | IC50 [nM]
CNCCCC1Cc2cc(F)ccc2N(c2ccccc2)S1(=O)=O (single isomer, unassigned; enantiomer II) | 4000
CNCCCC1Cc2ccccc2N(c2ccccc2)S1(=O)=O.Cl (single isomer, unassigned; enantiomer II) | 6600

Tested on: Rattus norvegicus
Assay: Thermoregulatory activity in OVX-induced thermoregulatory dysfunction Sprague-Dawley rat model assessed as mean reduction in tail-skin temperature at 3 mg/kg, po by implanted temperature and physical activity transmitter
Format: functional

Structure (SMILES) | Activity [°C]
CNCCCC1Cc2ccccc2N(c2c(F)cccc2F)S1(=O)=O.Cl (single isomer, unassigned; 16f) | 0
CNCCCC1Cc2cc(F)ccc2N(c2ccccc2F)S1(=O)=O.Cl (single isomer, unassigned; enantiomer II) | 1.5

Target: Sodium-dependent noradrenaline transporter (Homo sapiens, UniProt P23975)
Assay: not given

Chain of Sodium-dependent noradrenaline transporter (P23975 whole entry): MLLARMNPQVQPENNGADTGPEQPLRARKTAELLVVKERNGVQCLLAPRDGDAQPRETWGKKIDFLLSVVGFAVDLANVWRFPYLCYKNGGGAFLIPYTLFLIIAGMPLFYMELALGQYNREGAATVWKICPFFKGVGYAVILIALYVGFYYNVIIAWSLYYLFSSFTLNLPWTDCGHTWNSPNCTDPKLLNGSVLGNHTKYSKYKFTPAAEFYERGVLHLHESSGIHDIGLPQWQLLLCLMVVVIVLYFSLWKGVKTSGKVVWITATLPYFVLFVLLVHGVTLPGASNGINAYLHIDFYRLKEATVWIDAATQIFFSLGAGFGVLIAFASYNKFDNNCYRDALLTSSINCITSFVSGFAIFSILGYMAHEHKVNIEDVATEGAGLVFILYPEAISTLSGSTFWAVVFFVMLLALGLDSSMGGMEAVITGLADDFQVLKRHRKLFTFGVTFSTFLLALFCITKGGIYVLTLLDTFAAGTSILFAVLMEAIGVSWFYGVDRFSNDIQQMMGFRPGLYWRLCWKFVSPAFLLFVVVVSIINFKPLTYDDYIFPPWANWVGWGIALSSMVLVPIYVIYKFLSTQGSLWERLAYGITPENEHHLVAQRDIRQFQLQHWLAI

Structure (SMILES) | IC50 [nM]
CNCCCC1Cc2ccccc2N(c2c(F)cccc2F)S1(=O)=O (single isomer, unassigned; 16e) [listing 2 of 2 here] | 52
CNCCCC1Cc2ccccc2N(c2ccccc2)S1(=O)=O.Cl (single isomer, unassigned; enantiomer II) | 12
CNCCCC1Cc2cc(F)ccc2N(c2ccccc2F)S1(=O)=O (single isomer, unassigned; enantiomer I) | 93
CNCCCC1Cc2ccccc2N(c2ccccc2)S1(=O)=O (single isomer, unassigned; enantiomer I) | 88
CNCCCC1Cc2ccccc2N(c2c(F)cccc2F)S1(=O)=O.Cl (single isomer, unassigned; 16f) | 5
CNCCCC1Cc2cc(F)ccc2N(c2ccccc2F)S1(=O)=O.Cl (single isomer, unassigned; enantiomer II) | 11
CNCCCC1Cc2cc(F)ccc2N(c2c(F)cccc2F)S1(=O)=O.Cl (single isomer, unassigned; enantiomer II) | 27
CNCCCC1Cc2ccccc2N(c2ccccc2F)S1(=O)=O.Cl (single isomer, unassigned; enantiomer II) | 3
CNCCCN1Cc2ccccc2N(c2ccc(C)cc2)S1(=O)=O | 140
CNCCCC1Cc2ccccc2N(c2ccccc2F)S1(=O)=O (single isomer, unassigned; enantiomer I) [listing 2 of 2 here] | 55
CNCCCC1Cc2cc(F)ccc2N(c2c(F)cccc2F)S1(=O)=O (single isomer, unassigned) [listing 2 of 2 here] | 25

Target: T2, Sodium-dependent serotonin transporter
Assay: Inhibition of serotonin uptake at human SERT expressed in human JAR
Target sequence in this assay (P31645 whole entry): as the sequence (P31645 whole entry, looked up) above

Structure (SMILES) | IC50 [nM]
CNCCCCN1Cc2cc(F)ccc2N(c2ccccc2F)S1(=O)=O | 110
CNCCCC1Cc2cc(F)ccc2N(c2ccccc2)S1(=O)=O (single isomer, unassigned; enantiomer II) | 240
CNCCCN1Cc2cc(F)ccc2N(c2ccccc2F)S1(=O)=O | 1500
CNCCCC1Cc2ccccc2N(c2ccccc2)S1(=O)=O.Cl (single isomer, unassigned; enantiomer II) | 2500
CNCCCCN1Cc2ccccc2N(c2ccccc2F)S1(=O)=O | 2000
CNCCCC1Cc2cc(F)ccc2N(c2ccccc2F)S1(=O)=O (single isomer, unassigned; enantiomer I) | 720
CNCCCC1Cc2ccccc2N(c2ccccc2)S1(=O)=O (single isomer, unassigned; enantiomer I) | 6900
CNCCCN1Cc2ccccc2N(c2ccccc2F)S1(=O)=O | 5500
CNCCCC1Cc2ccccc2N(c2c(F)cccc2F)S1(=O)=O.Cl (single isomer, unassigned; 16f) | 8000
CNCCCC1Cc2cc(F)ccc2N(c2ccccc2F)S1(=O)=O.Cl (single isomer, unassigned; enantiomer II) | 340
CNCCN1Cc2cc(F)ccc2N(c2ccccc2F)S1(=O)=O | 13300
CNCCCC1Cc2cc(F)ccc2N(c2c(F)cccc2F)S1(=O)=O.Cl (single isomer, unassigned; enantiomer II) | 600
CNCCCN1Cc2ccccc2N(c2ccccc2)S1(=O)=O | 6000

Target: T1, Sodium-dependent dopamine transporter
Assay: Displacement of [3H]WIN-35428 from human recombinant DAT expressed in CHO cells at 1 uM
Format: cell-based

Structure (SMILES) | inhibition [%]
CNCCCCN1Cc2cc(F)ccc2N(c2ccccc2F)S1(=O)=O | 25
CNCCCN1Cc2cc(F)ccc2N(c2ccccc2F)S1(=O)=O | 2.5
CNCCCCN1Cc2ccccc2N(c2ccccc2F)S1(=O)=O | 18
CNCCN1Cc2ccccc2N(c2ccccc2F)S1(=O)=O | 24
CNCCCN1Cc2ccccc2N(c2ccccc2F)S1(=O)=O | -7
CNCCN1Cc2cc(F)ccc2N(c2ccccc2F)S1(=O)=O | -5
CNCCCN1Cc2ccccc2N(c2ccccc2)S1(=O)=O | 17

Target: T2, Sodium-dependent serotonin transporter
Assay: Inhibition of serotonin uptake at human SERT expressed in human JAR at 1 uM
Target sequence in this assay (P31645 whole entry, looked up): as above

Structure (SMILES) | inhibition [%]
CNCCN1Cc2ccccc2N(c2ccccc2F)S1(=O)=O | 24

Tested on: not listed separately
Assay: Half life in rat liver microsomes at 1 uM

Structure (SMILES) | half-life at 1 µM [min]
CNCCCC1Cc2ccccc2N(c2c(F)cccc2F)S1(=O)=O (single isomer, unassigned; 16e) [listing 2 of 2 here] | 3
CNCCCC1Cc2ccccc2N(c2ccccc2)S1(=O)=O.Cl (single isomer, unassigned; enantiomer II) | < 1
CNCCCC1Cc2cc(F)ccc2N(c2ccccc2F)S1(=O)=O (single isomer, unassigned; enantiomer I) | > 30
CNCCCC1Cc2ccccc2N(c2ccccc2)S1(=O)=O (single isomer, unassigned; enantiomer I) | 3
CNCCCC1Cc2ccccc2N(c2c(F)cccc2F)S1(=O)=O.Cl (single isomer, unassigned; 16f) | 4
CNCCCC1Cc2cc(F)ccc2N(c2ccccc2F)S1(=O)=O.Cl (single isomer, unassigned; enantiomer II) | > 30
CNCCCC1Cc2cc(F)ccc2N(c2c(F)cccc2F)S1(=O)=O.Cl (single isomer, unassigned; enantiomer II) | > 30
CNCCCC1Cc2ccccc2N(c2ccccc2F)S1(=O)=O.Cl (single isomer, unassigned; enantiomer II) | < 1
CNCCCC1Cc2ccccc2N(c2ccccc2F)S1(=O)=O (single isomer, unassigned; enantiomer I) [listing 2 of 2 here] | < 1
CNCCCC1Cc2cc(F)ccc2N(c2c(F)cccc2F)S1(=O)=O (single isomer, unassigned) [listing 2 of 2 here] | > 30
